Results as given in patent US20240284918A1, “INSECT REPELLENT COMPOSITION AND A METHOD OF REPELLING INSECTS” (Åbo Akademi, priority 2021, published 2024).

Assays:
[1] = test system: Aedes albopictus; assay: Mosquito repellent testing on human forearm in test cage (ASTM E951-83); format: in vivo; conditions: text summary of Table 4
Protocol: The mosquitos used in this study were Aedes albopictus. Mosquito repellent activity of the tested samples (listed in Table 2) was assessed by using the test cage as described by Songkro et al (2012), in the American Society for Testing and Materials (ASTM) standard […]-83 Laboratory testing of non-commercial mosquito repellent composition on the skin. The sample was tested on human subject. The same volunteers tested all the formulations under laboratory conditions. According to the method described by Coucci and Müller (2018), 50 adult female Aedes albopictus mosquitoes were transferred into the mosquito proof enclosed cage with the help of aspirator tube. The compositions to be tested were applied to the forearm ([…]) of the volunteers. The applied hand was introduced into the cage and the number of bites was recorded. After every 30 minutes the volunteer hands were subjected to the cage for 5 minutes and the numbers of mosquito bites were noted. Same procedure was implemented for control. Control study is done by placing the forearm in cage without application of tested sample. Before starting each replication, the mosquitoes' propensity to bite is assessed by inserting an untreated forearm into the cage. […] According to this procedure different compositions were tested by applying on the forearm with fresh mosquitoes every time of testing.

[2] = test system: Ixodes larvae, nymph forms and adults (female and male); assay: Field testing, treated tick sheet dragging; format: in vivo; conditions: treated cotton sheet dragged 35 x 10 m; 5% vanillin in all FA and HFA solutions; vs commercial product Punkkiassa (19% IR3535)
Text: Tick-dragging method was adopted to study the effectiveness of the product in repelling ticks in their natural habitat in Ruissalo, Turku. A square of 1 m^2 cotton sheet was divided in three parallel divisions and the borders were marked with pencil: 100*45 cm division on both sides (A and B) and a 100*10 cm neutral strip in the middle (N). Both A and B were both treated with a solution from a solution test pair (or left untreated for control drags) from that side of the sheet that would face the ground during dragging. The neutral zone was always left untreated. The evenly sprayed solution was let settle on the sheet for ˜15 minutes before the first drag. The sheet was dragged for 10 m with the treated side down with moderate pace in an even, tick-friendly biotope. After every 10 meter drag, the treated side was inspected for Ixodes larvae, nymph forms and adults (female and male). Number of individuals in every (4) form per department (A, B or N) was counted. Every test pair/sheet was dragged 35 times during the same day between 08:00 AM and 02:00 PM. No new solution was added to the sheet during the day. The time of start for every draw was checked. We tested different product types for field studies like FA (5, 10, 20%) and HFA (10 & 20%) and also included a commercial tick repellent (Punkkiassa) as a positive control. […]

[3] = test system: nymphs and the female ticks of the Ixodus ricinu species; assay: Tick repellency of IR3535 (test results received from Entostudio laboratory, Italy); conditions: in vivo
[4] = test system: Ixodes Ricinus (male, female and nymphs); assay: Tick repellent testing (treated cylinder/stick and human volunteer's forearm); format: in vivo; conditions: stick test, FIG. 4

## CC(=O)CC/C=C(\C)CC/C=C(\C)CCC=C(C)C [FA, Farnesyl acetone]
[1]
  mosquito repellent activity (in words): efficient repellent activity
[2]
  repellency of nymphs in field test (FIG. 5): repelled nymphs very effectively compared to the commercial product

## CCCCN(CCC(=O)OCC)C(C)=O [IR3535, 3-[N-butyl-N-acetyl]-aminopropionic acid, ethyl ester]
[3]
  repellency of nymphs and female ticks: does not repel the nymphs and the female ticks

## CC(=O)CCCC(C)CCCC(C)CCCC(C)C (stereo not drawn) [HFA, 6,10,14-trimethyl-pentadecanone]
[1]
  mosquito repellent activity (in words): efficient repellent activity
[2]
  repellency of nymphs in field test (FIG. 5): repelled nymphs very effectively compared to the commercial product

## C=C1CC[C@H]2O[C@]2(C)CC[C@@H]2[C@@H]1CC2(C)C [Caryophyllene oxide]
[4]
  tick repellent activity (in words): not very effective
